From patent US20090239846A1, “Novel Compounds” (Glaxo Group Limited, priority 2005, published 2009)
“Also recorded” adds a separate entry of the source.

The molecules below were run on influx of neutrophils to the lung in LPS-challenged rats (assay: Rat LPS neutrophilia model). Details: LPS aerosol, lavage 4 hours later, in at least one of the range of conditions tested, significance p<0.05.
Format: in vivo
Procedure: The effect of compounds on the influx of neutrophils to the lung in LPS-challenged rats is evaluated as follows. The test compound is suspended in one of the following solutions: 0.5% tween 80/PBS, 0.5% tween 80/saline, 10% EtOH/saline (with pH adjusted to 2.0, or 8.0 with HCl, or unadjusted), Saline (pH 2.0, 6.5 or 8.0, 0.5% Tragacanth, 1% DMSO/20% Encapsin/Saline, or acidified 5% Tragacanth. The suspension process may be aided by the use of a glass homogenizer. For intratracheal administration, the animals are anesthetized with inhaled isoflurane and placed in a supine position, the trachea is intubated with a steel gavage needle (1.5 inch, 22 gauge, small ball) or a Penn-Century Microsprayer Aerosolizer (model IA-LB) and 200 ul of dosing solution is delivered. The animals are visually monitored during the recovery process, which typically occurs within two minutes.
Rats treated with compound or vehicle (15 min-24 hours pretreatment) are exposed to an LPS aerosol (100 ug/ml) for 15 min. Four hours later the rats are euthanized with pentobarbital (100 mg/kg, i.p.) and the airways are lavaged with 5 washes of 5 ml of phosphate buffered saline. The harvested cells are stained (Diffquick) and counted to determine total and differential cell data. In a typical study, macrophages represent 40-70% of the total cells, and polymorphonuclear cells 30-60% of the total cells. Inhibition of neutrophil levels relative to no compound controls is calculated based on the differential counts.
The assay has varying conditions, such as concentration, pretreat time, form of the compound (crystalline, amorphous, salts, micronised), and a wet or dry application of the compound.
The data is obtained as % inhibition using a particular concentration and pretreat time.

Row | SMILES | inhibition of neutrophilia
1 | Cc1ccc(C(=O)NC(C)C)cc1-c1nc(NCCN(C)C)nc2c1CNC(=O)N2c1c(F)cccc1F [Example 37, 3-(8-(2,6-difluorophenyl)-2-{[2-(dimethylamino)ethyl]amino}-7-oxo-5,6,7,8-tetrahydropyrimido[4,5-d]pyrimidin-4-yl)-4-methyl-N-(1-methylethyl)benzamide] | statistically nonsignificant inhibition of neutrophilia
2 | Cc1ccc(C(=O)Nc2ccc(F)cc2)cc1-c1nc(NC2CCN(C)CC2)nc2c1CNC(=O)N2c1c(F)cccc1F [Example 39, 3-{8-(2,6-difluorophenyl)-2-[(1-methyl-4-piperidinyl)amino]-7-oxo-5,6,7,8-tetrahydropyrimido[4,5-d]pyrimidin-4-yl}-N-(4-fluorophenyl)-4-methylbenzamide] | statistically nonsignificant inhibition of neutrophilia
3 | Cc1ccc(C(=O)NC(C)C)cc1-c1nc(NCCCN(C)C)nc2c1CNC(=O)N2c1c(F)cccc1F [Example 40, 3-(8-(2,6-difluorophenyl)-2-{[3-(dimethylamino)propyl]amino}-7-oxo-5,6,7,8-tetrahydropyrimido[4,5-d]pyrimidin-4-yl)-4-methyl-N-(1-methylethyl)benzamide] | statistically significant inhibition of neutrophilia
4 | Cc1ccc(C(=O)Nc2ccc(F)cc2)cc1-c1nc(NCCCN(C)C)nc2c1CNC(=O)N2c1c(F)cccc1F [Example 42, 3-(8-(2,6-difluorophenyl)-2-{[3-(dimethylamino)propyl]amino}-7-oxo-5,6,7,8-tetrahydropyrimido[4,5-d]pyrimidin-4-yl)-N-(4-fluorophenyl)-4-methylbenzamide] | statistically significant inhibition of neutrophilia
5 | CCN(CC)CCCNc1nc(-c2cc(C(=O)Nc3ccc(F)cc3)ccc2C)c2c(n1)N(c1c(F)cccc1F)C(=O)NC2 [Example 43, 3-[2-{[3-(diethylamino)propyl]amino}-8-(2,6-difluorophenyl)-7-oxo-5,6,7,8-tetrahydropyrimido[4,5-d]pyrimidin-4-yl]-N-(4-fluorophenyl)-4-methylbenzamide] | inactive
6 | CCCNC(=O)c1ccc(C)c(-c2nc(N(C)CCCN(C)C)nc3c2CNC(=O)N3c2c(F)cccc2F)c1 [Example 53, 3-{8-(2,6-difluorophenyl)-2-[[3-(dimethylamino)propyl](methyl)amino]-7-oxo-5,6,7,8-tetrahydropyrimido[4,5-d]pyrimidin-4-yl}-4-methyl-N-propylbenzamide] | statistically nonsignificant inhibition of neutrophilia
7 | Cc1ccc(C(=O)NC(C)C)cc1-c1nc(N2CCC(N3CCCCC3)CC2)nc2c1CNC(=O)N2c1c(F)cccc1F [Example 57, 3-[2-(1,4′-bipiperidin-1′-yl)-8-(2,6-difluorophenyl)-7-oxo-5,6,7,8-tetrahydropyrimido[4,5-d]pyrimidin-4-yl]-4-methyl-N-(1-methylethyl)benzamide] | statistically nonsignificant inhibition of neutrophilia
8 | Cc1ccc(C(=O)NC(C)C)cc1-c1nc(N2CCC(N3CCCC3)CC2)nc2c1CNC(=O)N2c1c(F)cccc1F [Example 60, 3-{8-(2,6-difluorophenyl)-7-oxo-2-[4-(1-pyrrolidinyl)-1-piperidinyl]-5,6,7,8-tetrahydropyrimido[4,5-d]pyrimidin-4-yl}-4-methyl-N-(1-methylethyl)benzamide] | statistically nonsignificant inhibition of neutrophilia; also recorded: inactive
9 | Cc1ccc(C(=O)NC(C)C)cc1-c1nc(N2CCC(N3CCC(C)CC3)CC2)nc2c1CNC(=O)N2c1c(F)cccc1F [Example 70, 3-[8-(2,6-difluorophenyl)-2-(4-methyl-1,4′-bipiperidin-1′-yl)-7-oxo-5,6,7,8-tetrahydropyrimido[4,5-d]pyrimidin-4-yl]-4-methyl-N-(1-methylethyl)benzamide] | statistically significant inhibition of neutrophilia
10 | CN(C)CCNc1nc(-c2cccc(C(=O)Nc3ccccc3)c2)c2c(n1)N(c1c(F)cccc1F)C(=O)NC2 [Example 91] | statistically significant inhibition of neutrophilia
11 | CN(C)CCNc1nc(-c2cccc(C(=O)Nc3nccs3)c2)c2c(n1)N(c1c(F)cccc1F)C(=O)NC2 [Example 92, 3-(8-(2,6-difluorophenyl)-2-{[2-(dimethylamino)ethyl]amino}-7-oxo-5,6,7,8-tetrahydropyrimido[4,5-d]pyrimidin-4-yl)-N-1,3-thiazol-2-ylbenzamide] | statistically significant inhibition of neutrophilia
12 | CN(C)CCNc1nc(-c2cccc(C(=O)Nc3ccc(F)cc3)c2)c2c(n1)N(c1c(F)cccc1F)C(=O)NC2 [Example 93] | statistically nonsignificant inhibition of neutrophilia
13 | Cc1c(F)cc(C(=O)Nc2ccccc2)cc1-c1nc(NCCN(C)C)nc2c1CNC(=O)N2c1c(F)cccc1F [Example 112, 3-(8-(2,6-difluorophenyl)-2-{[2-(dimethylamino)ethyl]amino}-7-oxo-5,6,7,8-tetrahydropyrimido[4,5-d]pyrimidin-4-yl)-5-fluoro-4-methyl-N-phenylbenzamide] | statistically significant inhibition of neutrophilia
14 | Cc1ccc(C(=O)Nc2nccs2)cc1-c1nc(NCCCN(C)C)nc2c1CNC(=O)N2c1c(F)cccc1F [Example 119, 3-(8-(2,6-difluorophenyl)-2-{[3-(dimethylamino)propyl]amino}-7-oxo-5,6,7,8-tetrahydropyrimido[4,5-d]pyrimidin-4-yl)-4-methyl-N-1,3-thiazol-2-ylbenzamide] | statistically significant inhibition of neutrophilia
15 | CCN(CC)CCCNc1nc(-c2cc(C(=O)Nc3nccs3)ccc2C)c2c(n1)N(c1c(F)cccc1F)C(=O)NC2 [Example 120, 3-[2-{[3-(diethylamino)propyl]amino}-8-(2,6-difluorophenyl)-7-oxo-5,6,7,8-tetrahydropyrimido[4,5-d]pyrimidin-4-yl]-4-methyl-N-1,3-thiazol-2-ylbenzamide] | statistically significant inhibition of neutrophilia
16 | Cc1ccc(C(=O)Nc2nccs2)cc1-c1nc(N(C)CCCN(C)C)nc2c1CNC(=O)N2c1c(F)cccc1F [Example 124, 3-{8-(2,6-difluorophenyl)-2-[[3-(dimethylamino)propyl](methyl)amino]-7-oxo-5,6,7,8-tetrahydropyrimido[4,5-d]pyrimidin-4-yl}-4-methyl-N-1,3-thiazol-2-ylbenzamide] | statistically nonsignificant inhibition of neutrophilia
17 | CSc1ccc(NC(=O)c2ccc(C)c(-c3nc(NCCN(C)C)nc4c3CNC(=O)N4c3c(F)cccc3F)c2)cc1 [Example 127, 3-(8-(2,6-difluorophenyl)-2-{[2-(dimethylamino)ethyl]amino}-7-oxo-5,6,7,8-tetrahydropyrimido[4,5-d]pyrimidin-4-yl)-4-methyl-N-[4-(methylthio)-phenyl]benzamide] | statistically significant inhibition of neutrophilia
18 | Cc1ccc(C(=O)Nc2nccs2)cc1-c1nc(NC[C@H](C)O)nc2c1CNC(=O)N2c1c(F)cccc1F [Example 134, 3-(8-(2,6-difluorophenyl)-2-{[(2S)-2-hydroxypropyl]amino}-7-oxo-5,6,7,8-tetrahydropyrimido[4,5-d]pyrimidin-4-yl)-4-methyl-N-1,3-thiazol-2-ylbenzamide] | statistically nonsignificant inhibition of neutrophilia
